Results: patent publication US20220016272A1, “COMPOSITIONS, METHODS AND KITS FOR DIAGNOSING AND TREATING CD206 EXPRESSING CELL-RELATED DISORDERS” (Cardinal Health 414, LLC, priority 2013, published 2022)

Columns and labels:
[1] = molecular target: mannose receptor protein CD206 (Homo sapiens, UniProt P22897)
[2] = tested on: Kaposi's sarcoma lesion(s); test: SPECT and SPECT/CT imaging of primary cutaneous Kaposi's sarcoma; type: in vivo, human; settings: 50 μg tilmanocept, 2.0 mCi 99mTc, subcutaneous; example in present tense
Protocol: The following illustrates yet another example of the evaluation of Primary Cutaneous Kaposi's Sarcoma (KS) by SPECT and SPECT/CT Imaging using Lymphoseek® (also known as technetium 99mTc-tilmanocept injection) a radiopharmaceutical that binds to mannose binding receptors (CD206) that reside on the surfaces of dendritic cells and macrophages.
The total volume of 99mTc-tilmanocept injection is 0.3 to 0.5 mL.
The patient has a marker lesion (>1 cm in diameter) with a confirmed diagnosis of KS (CD206-expressing cutaneous KS) via punch biopsy. The location of the marker KS lesion is on the extremities: from the shoulder to the metacarpal region or from the groin to the metatarsal region.
The dose is administered by a syringe with a ⅝ inch, 25- or 27-gauge, fixed needle, or other syringe/needle combinations that are acceptable for subcutaneous injections. The injection is made 1.5±0.25 cm distal from the marker lesion, 4-8 cm distal to the marker lesion, or 4-8 cm proximal to the marker lesion.
The patient undergoes a regional dynamic SPECT scan immediately post-injection for a duration of 30 minutes. After the initial scan, the patient undergoes whole body SPECT/CT imaging at 1 hour and whole body SPECT imaging at 4-6 hours post injection. The patient is permitted to leave the imaging center after the 4-6 hour SPECT scan. […]

[3] = staging breast cancer, melanoma or SCC; cited from earlier work

Chain of mannose receptor protein CD206 (P22897 19-1456): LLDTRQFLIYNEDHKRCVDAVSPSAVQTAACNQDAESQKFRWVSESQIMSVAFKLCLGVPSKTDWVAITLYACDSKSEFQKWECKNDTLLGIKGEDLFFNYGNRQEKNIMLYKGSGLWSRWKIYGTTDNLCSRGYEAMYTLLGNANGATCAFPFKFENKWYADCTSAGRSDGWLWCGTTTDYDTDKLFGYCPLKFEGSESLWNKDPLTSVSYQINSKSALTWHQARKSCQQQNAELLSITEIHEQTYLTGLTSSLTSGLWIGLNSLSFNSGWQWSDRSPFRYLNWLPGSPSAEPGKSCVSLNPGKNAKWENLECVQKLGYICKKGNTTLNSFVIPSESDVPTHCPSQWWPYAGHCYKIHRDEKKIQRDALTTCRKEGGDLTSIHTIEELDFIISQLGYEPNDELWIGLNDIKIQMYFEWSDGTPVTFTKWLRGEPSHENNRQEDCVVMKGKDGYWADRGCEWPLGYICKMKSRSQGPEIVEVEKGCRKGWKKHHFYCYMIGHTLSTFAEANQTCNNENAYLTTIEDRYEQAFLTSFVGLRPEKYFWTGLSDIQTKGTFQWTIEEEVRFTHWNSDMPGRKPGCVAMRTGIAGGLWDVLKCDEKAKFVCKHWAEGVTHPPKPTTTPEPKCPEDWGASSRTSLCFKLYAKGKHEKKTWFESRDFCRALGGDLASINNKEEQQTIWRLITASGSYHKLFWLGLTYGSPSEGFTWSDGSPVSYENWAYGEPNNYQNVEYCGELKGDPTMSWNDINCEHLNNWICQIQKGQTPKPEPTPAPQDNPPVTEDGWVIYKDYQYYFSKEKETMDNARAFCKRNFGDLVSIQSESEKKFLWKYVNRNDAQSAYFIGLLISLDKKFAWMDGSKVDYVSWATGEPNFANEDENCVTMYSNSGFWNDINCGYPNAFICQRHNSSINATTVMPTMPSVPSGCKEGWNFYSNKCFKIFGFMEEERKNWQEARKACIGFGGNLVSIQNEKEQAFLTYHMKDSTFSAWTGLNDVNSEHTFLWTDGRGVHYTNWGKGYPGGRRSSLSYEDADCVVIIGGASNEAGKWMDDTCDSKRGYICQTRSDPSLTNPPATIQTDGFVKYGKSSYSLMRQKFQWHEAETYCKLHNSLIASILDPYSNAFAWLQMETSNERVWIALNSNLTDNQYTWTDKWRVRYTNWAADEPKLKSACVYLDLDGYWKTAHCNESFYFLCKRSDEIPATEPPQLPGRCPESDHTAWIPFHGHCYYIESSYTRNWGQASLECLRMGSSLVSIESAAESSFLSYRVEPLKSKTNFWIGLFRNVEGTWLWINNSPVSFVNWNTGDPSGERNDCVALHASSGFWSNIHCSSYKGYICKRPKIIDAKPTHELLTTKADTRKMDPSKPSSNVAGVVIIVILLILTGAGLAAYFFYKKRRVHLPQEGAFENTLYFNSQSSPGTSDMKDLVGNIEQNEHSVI

Row | Substance | intracellular fate after uptake into macrophage [1] | receptor specificity ([1]; administered to mammals or contacted with CD206 expressing cells ex vivo) | detection of KS lesions by SPECT and SPECT/CT [2] | injection site clearance [3] | uptake by distal or second-echelon lymph nodes [3] | uptake by the sentinel lymph node(s) [3]
1 | dextran 3-[(2-aminoethyl)thio]propyl 17-carboxy-10,13,16-tris (carboxymethyl)-8-oxo-4-thia-7,10,13,16-tetraazaheptadec-1-yl 3-[[2-[[1-imino-2-(D-mannopyranosylthio) ethyl]aminolethyllthiolpropyl ether complexes [tilmanocept] | persists in stable non-digesting vesicles | bind exclusively to the mannose receptor protein CD206 |  |  |  | 
2 | technetium Tc 99m, dextran 3-[(2-aminoethyl)thio]propyl 17-carboxy-10,13,16-tris(carboxymethyl)-8-oxo-4-thia-7,10,13,16-tetraaz aheptadec-1-yl 3-[[2-[[1-imino-2-(D-mannopyranosylthio) ethyl]amino]ethyl]thio]propyl ether complexes [Lymphoseek] |  |  | aids in the detection of Kaposi's sarcoma lesion(s) | rapid clearance from an injection site | low uptake by distal or second-echelon lymph nodes | rapid and sustained uptake by the sentinel lymph node(s)
